Literature values in patent US9155796B2, “Hydrogels with covalently linked polypeptides” (SUSAVION BIOSCIENCES, INC., priority 2012, dated 2015).

Tested on: peripheral blood mononuclear cells (PBMCs)
Settings: PBMC cultures; within 4 hours

## (VQATQS-PEG2-)4-Lys2-Lys-PEG2-Cys[—CH2CH(Me): CH2]—NH2 (not fully specified; tetravalent Lys dendrimer, PEG2 linkers, modified Cys amide; Therapeutic peptide) [SVC1]
  increased PDGF secretion: two- to four-fold

## (WNSTL-PEG2-)4-Lys2-Lys-PEG2-Cys[CH2CH(Me): CH2]—NH2 (not fully specified; tetravalent Lys dendrimer, PEG2 linkers, modified Cys amide; Therapeutic peptide) [SVH1B]
  increased PDGF secretion: two- to four-fold

## (VSNQH-PEG2-)4-Lys2-Lys-PEG2-Cys[—CH2CH(Me): CH2]—NH2 (not fully specified; tetravalent Lys dendrimer, PEG2 linkers, modified Cys amide; Therapeutic peptide) [SVD2]
  increased PDGF secretion: two- to four-fold

## (NQHTPR-PEG2-)4-Lys2-Lys-PEG2-Cys[—CH2CH(Me): CH2]—NH2 (not fully specified; tetravalent Lys dendrimer, PEG2 linkers, modified Cys amide; Therapeutic peptide) [SV6D]
  increased PDGF secretion: two- to four-fold
